Data from patent US20030198614A1, “Hair growers” (priority 2000, published 2003).

Columns and labels:
[1] = test system: C3H/He mice, whose hair cycle was at the telogen stage; assay: Hair regrowth effect test; format: in vivo; conditions: 0.1 ml once a day on shaved back, after 24 days, average of 6 mice
Description: The Compounds 1 to 5 described above were used as test materials. Each test material was dissolved in 70% ethanol aqueous solution and the solution was subjected to the application as a sample (test material concentration: 50 nM and 100 nM). 70% Ethanol was also used as a control sample.
The hair regrowth effect test was performed using C3H/He mice, whose hair cycle was at the telogen stage according to the method of Ogawa et. al. (Normal and Abnormal Epidermal Differentiation, Edited by M. Seiji and I. A. Bernstein, Pages 159-170, 1982, Todai Shuppan).
Namely, 6 mice were used in a group and their hair of the regions of back was shaved by hair clippers. 0.1 ml of sample was applied on the shaved regions once a day. After 24 days, the hair regrowth area was measured and the hair regrowth area rate was calculated based on the hair regrowth area with respect to the shaved area. The results are shown in Table 1 (expressed by average values).

[2] = Hair regrowth inducing effect test by cell cluster-accompanied culture method; format: cell-based; conditions: Homo sapiens, Human dermal papilla cell, 48 h, 2 days, Alamer Blue fluorescence, relative to negative control, read-out: Relative respiration level (%)
Description: The hair regrowth inducing effect was evaluated using, as an index, an increase in respiration level of a cell cluster formed under the coexistence of a normal human outer root sheath cell and a normal human dermal papilla cell.
Normal human dermal papilla cell (DP): A DP obtained by a primary culture from a head hair was subcultured three times in a 10% FBS-supplemented DMEM medium in a 75 cm^2 incubation flask coated with Type I collagen, and then stored while being frozen in a liquid nitrogen using a cell cryopreservation solution (Cellbanker II: DIA-IATRON).
Normal human outer root sheath cell (ORS): An ORS obtained by a primary culture from a head hair was subcultured three times in a SFM medium in a 75 cm^2 incubation flask coated with Type I collagen, and then stored while being frozen in a liquid nitrogen using Cellbanker II.
The DP and ORS cells stored as frozen were thawed, washed with an ice-cooled SFM medium, dispersed in the same medium and subjected to an accurate cell density measurement using a hemocytometer. Each cell density was adjusted at 5×10^4 cells/ml accurately, and the cell dispersions in equal volumes were combined under cooling with ice. 80 μl aliquots of the combined cell suspending SFM medium were inoculated into individual wells of a 96-well microplate (Sumilon celltight, spheroid 96U plate), and incubated for 2 days. The cell count in a single well upon inoculation was 2,000 cells for each of DP and ORS, thus 4,000 cells in total.
Each 80 μl of a test material-supplemented William's E(+) medium (William's E medium supplemented with 10 μg/ml transferrin, 10 ng/ml hydrocortisone, 10 μg/ml insulin and 10 ng/ml sodium selenite) was added to each well and incubated further for 2 days.
The test material-supplemented William's E(+) medium added to each well was prepared by dissolving the test material in ethanol at a concentration of 10 mM or 100 mM and adding to William's E(+) medium at 0.2% each. Accordingly, the final concentration of the test material in each well was 10 μM or 100 μM, and each final concentration of ethanol was 0.1%.
As a negative control, 80 μl of William's E(+) medium containing 0.2% ethanol was added (final concentration of ethanol was 0.1%).
Alamer Blue, SFM medium and William's E(+) medium were mixed in 2:1:1 ratio, warmed at 37° C. and then 40 μl aliquots were added to individual wells and allowed to react for 6 hours at 37° C. After completion of the reaction, 100 μl aliquots were taken from individual wells, and transferred to a white 96-well plate for fluorescence measurement (Opaque Plate).
A fluorometer (Labsystems Fluoroskan II) was used at the excitation wavelength of 544 nm and the fluorescent wavelength of 590 nm to measure the fluorescence intensity of each well, from which the fluorescent intensity of a cell-free reaction mixture (i.e., the reaction mixture treated similarly using a cell-free SFM medium) was subtracted to obtain a respiration level under each condition. From thus obtained respiration level, a relative respiration level(%) was calculated according to the following equation.
Relative respiration level(%)={Respiration level (test material)}/{Respiration level (negative control)}×100

[3] = test system: human hair follicle in the anagen stage; assay: Investigation of hair shaft elongation (organ culture of human hair follicle); format: cell-based; conditions: 1.0×10^-5 mol/L, 5-day incubation, 9 hair follicles per group
Description: A hair follicle in the anagen stage was isolated from a human scalp under a stereoscopic microscope observation, washed with “a medium prepared by adding penicillin, streptomycin and fungizone to Williams E medium (Gibco)” (hereinafter referred to as a (−) medium) and then examined for its length.
A medium obtained by supplementing the (−) medium further with 10 ng/ml hydrocortisone, 10 μg/ml insulin, 10 ng/ml sodium selenite and 10 μg/ml transferring (hereinafter ter referred to as a (+) medium) was dispensed in an aliquot of 1 ml per well into a 24-well microplate. The hair follicle described above was precipitated therein and incubated overnight at 37° C. in the presence of 5% CO2 (preincubation).
The elongation of the hair shaft in a hair follicle was determined by inspecting the microplate described above visually using an inverted microscope with a micrometer attached thereto.
A DMSO solution of a test material was added to a (−) medium for preparation. The final concentrations of the test material and DMSO were 1.0×10^−5 mol/L and 0.1%, respectively.
Only DMSO was added to a (−) medium at the final concentration of 0.1% for preparation.
The culture medium of the hair follicle groups described above was replaced each with the test materialcontaining medium or negative control medium, and the incubation was continued further for 5 days at 37° C. in the presence of 5% CO2. The length of each hair after 5-day incubation was measured, and the means were compared with each other.

Row | SMILES | Hair regrowth area rate ([1]; 50 nM in 70% ethanol) | Hair regrowth area rate ([1]; 100 nM in 70% ethanol) | activity at 10 µM [2] | activity at 100 µM [2] | Mean of hair shaft elongation [3]
1 | CCCCCCCCCCCCCCCCOC(CO)COC (stereo not shown) [Compound 1, 2-Hexadecyloxy-3-methoxy-1-propanol] | 70% | 93% | 139% | 157% | 1.7 mm
2 | CCCCCCCCCCCCCCCCOCC(O)COC (stereo not shown) [Compound 2, 1-Hexadecyloxy-3-methoxy-2-propanol] | 65% | 88% | 108% | 122% | 1.5 mm
3 | CCCCCCCCCCCCCCCCOCCCO [Compound 3, 3-Hexadecyloxy-1-propanol] | 15% | 74% | 106% | 108% | 1.6 mm
4 | CCCCCCCCCCCCCCCCOCC(COC)OC (stereo not shown) [Compound 4, 1-(2,3-Dimethoxypropoxy)hexadecane] | 68% | 78% | 127% | 134% | 1.9 mm
5 | CCCCCCCCCCCCCCCCCCC(CO)OC (stereo not shown) [Compound 5, 2-Methoxy-1-eicosanol] | 70% | 76% | 124% | 130% | 1.4 mm
